Experimental findings from PubChem BioAssay AID296 (DTP/NCI, 2004) are described below.

Where “and” joins values, the source holds several entries; their conditions need not be identical. Equal entries are not always repeated. Inconclusive results are not listed.

The assay relates to MX-1 breast xenograft, nude mice, tumor weight T/C. The assay can be described thus: NCI In Vivo Anticancer Drug Screen. Data for tumor model Human Mammary Carcinoma MX-1 Xenograft (intrarenal inoculation) in NU/NU Swiss (nude) mice. The conditions noted are these: endpoint: mean tumor weight change, higher = larger tumour. The gist of the method: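 Tumor-bearing mice were treated with test compound alongside a vehicle-treated control group. Survival or tumor size was measured, and activity is expressed as the treated-group value divided by the control-group value.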
Background: A xenograft is tissue or cells of one species grown in another, often human tumour cells in immunodeficient mice.

The mark [1] stands for this setting: dose: 200.0 mg/kg/injection, schedule: Q04DX003 (sc), vehicle: saline with Tween-80.
The mark [2] stands for this setting: dose: 400.0 mg/kg/injection, schedule: Q04DX003 (sc), vehicle: saline with Tween-80.
The mark [3] stands for this setting: dose: 800.0 mg/kg/injection, schedule: Q04DX003 (sc), vehicle: saline with Tween-80.
Where [4] appears, read: dose: 300.0 mg/kg/injection, schedule: Q04DX003 (sc), vehicle: saline with Tween-80.
The mark [5] stands for this setting: dose: 600.0 mg/kg/injection, schedule: Q04DX003 (sc), vehicle: saline with Tween-80.
Setting [6] is: dose: 1200.0 mg/kg/injection, schedule: Q04DX003 (sc), vehicle: saline with Tween-80.
Where [7] appears, read: dose: 2400.0 mg/kg/injection, schedule: Q04DX003 (sc), vehicle: saline with Tween-80.
Setting [8] is: dose: 25.0 mg/kg/injection, schedule: Q01DX010 (sc), vehicle: saline.
[9] abbreviates: dose: 8.0 mg/kg/injection, schedule: Q04DX003 (sc), vehicle: saline.

With `CCN1/C(=C/C=C/C=C\C=C\c2sc3ccc4ccccc4c3[n+]2CC)Sc2ccc3ccccc3c21`, the T/C runs as follows: (dose: 100.0 mg/kg/injection, schedule: Q04DX003 (sc), vehicle: saline with Tween-80) 104 % of control; under setting [1], 89 % of control; under setting [2], 101 % of control; under setting [3], 93 % of control.

Consider `COc1ccc2c(NCCCCCCNc3c4ccccc4nc4cc(OC)ccc34)c3ccccc3nc2c1`, for which the T/C (dose: 1.25 mg/kg/injection, schedule: Q01DX010 (sc), vehicle: lactic acid) is 81 % of control; the T/C (dose: 2.5 mg/kg/injection, schedule: Q01DX010 (sc), vehicle: lactic acid) is 165 % of control; the T/C (dose: 5.0 mg/kg/injection, schedule: Q01DX010 (sc), vehicle: lactic acid) was 79 % of control; the T/C (dose: 10.0 mg/kg/injection, schedule: Q01DX010 (sc), vehicle: lactic acid) was 92 % of control.

Regarding `CNc1cccnc1/C=N/NC(N)=S`, the T/C by setting is: under setting [4], 114 % of control; under setting [5], 61 % of control; under setting [6], 55 % of control; under setting [7], 77 % of control.

For `Cc1cc2c(c3oc(C4(C)OC4C4OC4C)cc(=O)c13)C(=O)c1c(O)c(C3CC(C)(N(C)C)C(O)C(C)O3)cc(C3CC(N(C)C)C(O)C(C)O3)c1C2=O` (centres undefined), the T/C is, setting by setting: (dose: 0.05 mg/kg/injection, schedule: Q04DX003 (sc), vehicle: saline) 77 % of control; (dose: 0.1 mg/kg/injection, schedule: Q04DX003 (sc), vehicle: saline) 30 % of control.

For `CC(=S)NC(O)C(=O)c1ccccc1` (centres undefined), the T/C is 163 % of control under setting [1]; 122 % of control under setting [2]; 152 % of control under setting [3]; 123 % of control (dose: 1600.0 mg/kg/injection, schedule: Q04DX003 (sc), vehicle: saline with Tween-80).

Regarding `NC(=O)/C=C/C(=O)c1c(Cl)cccc1Cl`, the T/C was 78 % of control (dose: 9.0 mg/kg/injection, schedule: Q04DX003 (sc), vehicle: saline with Tween-80) and 43 % of control (dose: 36.0 mg/kg/injection, schedule: Q04DX003 (sc), vehicle: saline with Tween-80).

In the case of `O=C(NO)c1cc(O)c(O)c(O)c1`, the T/C runs as follows: (dose: 200.0 mg/kg/injection, schedule: Q04DX003 (sc), vehicle: distilled water + Tween-80) 64 % of control; (dose: 400.0 mg/kg/injection, schedule: Q04DX003 (sc), vehicle: distilled water + Tween-80) 109 % of control; (dose: 800.0 mg/kg/injection, schedule: Q04DX003 (sc), vehicle: distilled water + Tween-80) 122 % of control.

For the molecule `CC1(c2ccc(Cl)cc2)OC(=O)C(=Cc2ccc([N+](=O)[O-])s2)C(=O)O1` (centres undefined), the T/C runs as follows: under setting [4], 122 % of control; under setting [5], 44 % of control; under setting [6], 26 % of control.

As to `CCN(Cc1ccc(Cl)c(Cl)c1)c1ccc2nc(N)nc(N)c2c1C`, the T/C (dose: 9.38 mg/kg/injection, schedule: Q04DX003 (sc), vehicle: distilled water + Tween-80) was 93 % of control and the T/C (dose: 18.75 mg/kg/injection, schedule: Q04DX003 (sc), vehicle: distilled water + Tween-80) is 86 % of control.

`CCSC(=O)N1c2ccc(OC)cc2C=CC1C#N` (centres undefined): the T/C is, setting by setting: under setting [5], 119 % of control; under setting [6], 85 % of control; under setting [7], 57 % of control; (dose: 4800.0 mg/kg/injection, schedule: Q04DX003 (sc), vehicle: saline with Tween-80) 40 % of control.

For the molecule `COc1cccc2c1C(=O)c1c(O)c3c(c(O)c1C2=O)CC(O)(C(=O)CO)CC3OC1CC(N)C(O)C(C)O1` (centres undefined), the T/C runs as follows: (dose: 12.0 mg/kg/injection, schedule: Q01DX010 (sc), vehicle: saline) 90 % of control; (dose: 24.0 mg/kg/injection, schedule: Q01DX010 (sc), vehicle: saline) 80 % of control; under setting [8], 78 % of control; (dose: 37.5 mg/kg/injection, schedule: Q01DX010 (sc), vehicle: water) 281 % of control; (dose: 48.0 mg/kg/injection, schedule: Q01DX010 (sc), vehicle: saline) 9 % of control; (dose: 50.0 mg/kg/injection, schedule: Q01DX010 (sc), vehicle: saline) 22 % of control. Moreover, the T/C reads like this: (dose: 75.0 mg/kg/injection, schedule: Q01DX010 (sc), vehicle: water) 229 % of control; (dose: 96.0 mg/kg/injection, schedule: Q01DX010 (sc), vehicle: saline) 4 % of control; (dose: 150.0 mg/kg/injection, schedule: Q01DX010 (sc), vehicle: water) 233 % of control; (dose: 300.0 mg/kg/injection, schedule: Q01DX010 (sc), vehicle: water) 81 % of control.

For the molecule `CC[C@](O)(C(=O)O)c1cc2n(c(=O)c1CO)Cc1cc3ccccc3nc1-2`, the T/C was 2 % of control under setting [9]; -92 % of control (dose: 16.0 mg/kg/injection, schedule: Q04DX003 (sc), vehicle: saline); -89 % of control (dose: 32.0 mg/kg/injection, schedule: Q04DX003 (sc), vehicle: saline); -100 % of control (dose: 64.0 mg/kg/injection, schedule: Q04DX003 (sc), vehicle: saline).

Take `O=NNc1ccccn1`: the T/C by setting is: (dose: 1.0 mg/kg/injection, schedule: Q01DX010 (sc), vehicle: saline) 78 % of control; (dose: 2.0 mg/kg/injection, schedule: Q01DX010 (sc), vehicle: saline) 86 % of control; (dose: 3.13 mg/kg/injection, schedule: Q01DX010 (sc), vehicle: saline) 20 % of control; (dose: 4.0 mg/kg/injection, schedule: Q01DX010 (sc), vehicle: saline) 163 % of control; (dose: 6.25 mg/kg/injection, schedule: Q01DX010 (sc), vehicle: saline) 50 % of control and 72 % of control; under setting [9], 103 % of control. Also, the T/C under setting [8] is 1 % of control and the T/C (dose: 64.0 mg/kg/injection, schedule: Q01DX010 (sc), vehicle: saline) was -87 % of control.

Take `CCCCC(=O)OCC(=O)[C@]1(O)Cc2c(O)c3c(c(O)c2[C@@H](OC2CC(NC(=O)C(F)(F)F)C(O)C(C)O2)C1)C(=O)c1c(OC)cccc1C3=O` (some centres undefined): the T/C (dose: 64.0 mg/kg/injection, schedule: Q01DX010 (sc), vehicle: distilled water + Tween-80) is 91 % of control; the T/C (dose: 128.0 mg/kg/injection, schedule: Q01DX010 (sc), vehicle: distilled water + Tween-80) was 56 % of control; the T/C (dose: 256.0 mg/kg/injection, schedule: Q01DX010 (sc), vehicle: distilled water + Tween-80) was 34 % of control.

Regarding `Nc1cccc(=O)[nH]1`, the T/C reads like this: (dose: 300.0 mg/kg/injection, schedule: Q04DX003 (sc), vehicle: saline) 92 % of control; (dose: 600.0 mg/kg/injection, schedule: Q04DX003 (sc), vehicle: saline) 95 % of control; (dose: 1200.0 mg/kg/injection, schedule: Q04DX003 (sc), vehicle: saline) 102 % of control.

For the molecule `COc1cc2c(c(OC)c1OC)-c1c(cc3c(c1OC)OCO3)CC(C)C(C)(O)C2OC(=O)c1ccccc1` (centres undefined), the T/C reads like this: (dose: 300.0 mg/kg/injection, schedule: Q04DX003 (sc), vehicle: saline + alcohol) 68 % of control; (dose: 600.0 mg/kg/injection, schedule: Q04DX003 (sc), vehicle: saline + alcohol) 82 % of control; (dose: 1200.0 mg/kg/injection, schedule: Q04DX003 (sc), vehicle: saline + alcohol) 79 % of control; (dose: 2400.0 mg/kg/injection, schedule: Q04DX003 (sc), vehicle: saline + alcohol) 88 % of control.
